{"source": "paper PMC11607671", "about": "“Antiviral activity of cathelicidins against porcine epidemic diarrhea virus (PEDV): Mechanisms, and efficacy” (Virus Research, 2024)", "key": {"PEDV [1]": {"test_system": "PEDV", "experiment": "Transmission electron microscopy of peptide-treated virus", "set-up": "species or system Porcine epidemic diarrhea virus", "details": "PEDV treated with 10 µM peptide, negative stain, Fig. 9", "protocol": "PEDV was treated with CATH-B1, LL-37, PMAP-23, and PMAP-36 for one minute at 37 °C. Subsequently, 10 µL of the sample was placed onto a freshly carbon-coated copper grid. The grids were washed 3 times with PBS and then fixed with 1% glutaraldehyde (Sigma-Aldrich, St. Louis, MO, USA) in PBS for 10 min. Following this fixation, the grids were rinsed 2 times with PBS and 4 times with MilliQ water. They were stained for 5 min in Uranyl Acetate (pH 7) then briefly washed with methylcellulose/uranyl acetate (pH 4) and incubated for 5 min on ice. Finally, the grids were looped out of the solution and air-dried. The samples were subsequently examined in a JEM1010 (JEOL) equipped with a Veleta 2k × 2k CCD camera (EMSIS, Munster, Germany).\nFig. 9 The effect of AMPs on the morphology of the virus. PEDV (MOI=0.3), which was pre-incubated with peptides. TEM images were taken of PEDV alone (A–D), PEDV treated with 10 µM LL-37 (E-H), PEDV treated with 10 µM CATH-B1 (I-L), PEDV treated with 10 µM PMAP-23 (M, N), and PEDV treated with 10 µM PMAP-36 (O, P). […] Micrographs were captured with a pixel size of 0,5 nm and analyzed visually using ImageJ. The micrographs are representative of observations from three independent experiments. Scale bars represent 100 nm."}, "PEDV-GFP": {"test_system": "PEDV-GFP", "experiment": "Pre-incubation (pre-treatment) antiviral assay", "type": "cell-based, Porcine epidemic diarrhea virus", "details": "Vero cells treated 3 h with AMPs (0-10 µM), washed, then infected with PEDV-GFP MOI 0.3 for 2 h; FC; Fig. 6B, C", "protocol": "The effect of AMPs on viral infectivity was also determined when they were added to Vero-cells before (pre-treatment) or after (post-treatment) infection. In the pre-treatment assay (Fig. 6A), Vero cells were treated with different concentrations of CATH-B1 and LL-37 peptides (ranging from 0 to 10 µM) for various durations (1, 2, 3, 4, and 24 h) at 37 °C. Subsequently, the cells were washed 2 times with PBS and infected with PEDV-GFP at an MOI of 0.3 for 2 h\nIn post-incubation assays (Fig. 7A), cells were initially exposed to the virus for 2 h, washed 2times with PBS and subsequently treated with AMPs for 3 h Both for pre- and post-infection assays, after the respective incubation periods, the cells were assessed using fluorescence microscopy and quantified using FC as described above.\nFig. 6 Effects of AMPs in pre-incubation assay. A) Experimental set-up of pre-incubation experiment. B) FC was employed to quantify the percentage of GFP-positive cells during pre-incubation. […] The reported values represent the mean ± SD derived from three independent experiments performed in triplicate. * p < 0.05; ** p < 0.01."}, "PEDV [2]": {"test_system": "PEDV", "experiment": "Peptide-virus interaction assay with Capto Core 700 beads", "type": "cell-based, Porcine epidemic diarrhea virus", "details": "Fig. 8", "protocol": "In order to determine if CATH-B1 and LL-37 physically interact with PEDV, Capto Core 700 beads (GE Healthcare Life Sciences, Chicago, IL, USA) were used to selectively eliminate unbound AMPs. PEDV were pre-incubated with or without CATH-B1/LL-37 in Opti-MEM medium, and Capto Core 700 beads were added, followed by a 1 h incubation at 4 °C while slowly rotating. After centrifugation, supernatants were collected and applied to the cells. To make sure the AMP was removed effectively, we tested samples with peptides but no virus using the same process. The collected supernatants were used to inoculate cells, and the number of infected cells was determined using the described method.\nFig. 8 Interactions between CATH-B1 and LL-37 with PEDV. CATH-B1/LL-37 were pre-incubated with the virus, and subsequently, the peptide and virus were separated using Capto Core beads. The supernatant containing the separated virus was then employed to infect Vero cells. […] The data is presented as the mean ± SEM of three independent experiments in duplicate, each with triplicate samples. **** p < 0.0001."}}, "data": [{"sequence": "LLGDFFRKSKEKIGKEFKRIVQRIKDFLRNLVPRTES [LL-37, human cathelicidin antimicrobial peptide, 37 residues]", "values": [{"measurement": "virus aggregation (TEM)", "setting": "PEDV [1]", "result": "in some cases, extensive virus aggregation"}, {"measurement": "effect on virus morphology / membrane (TEM)", "setting": "PEDV [1]; one minute at 37 °C", "result": "significant membrane disruption"}, {"measurement": "antiviral activity in pre-incubation assay, in words", "setting": "PEDV-GFP", "result": "potent inhibition of viral infection in Vero cells at all three concentrations"}, {"measurement": "virus infectivity, peptide pre-incubated with beads before PEDV introduction", "setting": "PEDV [2]; Capto Core 700 beads, Vero cells", "result": "minimal effects on virus infectivity"}, {"measurement": "virus infectivity, peptide incubated with PEDV without beads", "setting": "PEDV [2]; no Capto Core 700 beads, Vero cells", "result": "a decrease in virus infectivity"}, {"measurement": "antiviral activity when peptide is combined with virus and beads", "setting": "PEDV [2]; peptide + PEDV, then Capto Core 700 beads 1 h at 4 °C, supernatant applied to Vero cells", "result": "lost its inhibitory effect"}]}]}
